Values joined by “and” are separate entries in the source; they are usually repeats but may differ in a detail not shown here. Equal values may be shown once. Inconclusive results and toxic doses are left out.
Tested on: L1210 leukemia ip in BDF1 mice, survival T/C
Experiment: NCI In Vivo Anticancer Drug Screen. Data for tumor model L1210 Leukemia (intraperitoneal) in B6D2F1 (BDF1) mice
Conditions: higher = longer survival
How it was run: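 Tumor was transplanted into mice, which were then dosed with test compound or vehicle alone. Survival was recorded for each group, and the treated figure was expressed relative to the control figure.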

Compound: C1CN1c1nc(N2CC2)nc(N2CC2)n1
- T/C (endpoint: mean survival time, dose: 0.05 mg/kg/injection, schedule: Q01DX009 (ip), vehicle: saline): 94 % of control
- T/C (endpoint: mean survival time, dose: 0.06 mg/kg/injection, schedule: Q01DX009 (ip), vehicle: saline): 95 % of control
- T/C (endpoint: mean survival time, dose: 0.06 mg/kg/injection, schedule: Q01DX Z (ip), vehicle: saline): 97 % of control
- T/C (endpoint: mean survival time, dose: 0.1 mg/kg/injection, schedule: Q01DX009 (ip), vehicle: saline): 105 % of control
- T/C (endpoint: mean survival time, dose: 0.12 mg/kg/injection, schedule: Q01DX005 (ip), vehicle: saline): 115 % of control
- T/C (endpoint: mean survival time, dose: 0.12 mg/kg/injection, schedule: Q01DX009 (ip), vehicle: saline): 107 % of control
- T/C (endpoint: mean survival time, dose: 0.12 mg/kg/injection, schedule: Q01DX009 (sc), vehicle: saline): 101 % of control
- T/C (endpoint: mean survival time, dose: 0.12 mg/kg/injection, schedule: Q01DX010 (ip), vehicle: saline): 110 % of control
- T/C (endpoint: mean survival time, dose: 0.12 mg/kg/injection, schedule: Q01DX Z (ip), vehicle: carboxymethylcellulose (CMC)): 113 % of control
- T/C (endpoint: mean survival time, dose: 0.12 mg/kg/injection, schedule: Q01DX Z (ip), vehicle: saline): 118 % of control
- T/C (endpoint: mean survival time, dose: 0.13 mg/kg/injection, schedule: Q01DX009 (ip), vehicle: saline): 110 % of control
- T/C (endpoint: mean survival time, dose: 0.13 mg/kg/injection, schedule: Q01DX010 (oral), vehicle: carboxymethylcellulose (CMC)): 119 % of control
- T/C (endpoint: mean survival time, dose: 0.16 mg/kg/injection, schedule: Q01DX001 (ip), vehicle: saline): 109 % of control and 120 % of control
- T/C (endpoint: mean survival time, dose: 0.2 mg/kg/injection, schedule: Q01DX009 (ip), vehicle: saline): 121 % of control
- T/C (endpoint: mean survival time, dose: 0.25 mg/kg/injection, schedule: Q01DX001 (ip), vehicle: saline): 103 % of control
- T/C (endpoint: mean survival time, dose: 0.25 mg/kg/injection, schedule: Q01DX005 (ip), vehicle: saline): 115 % of control
- T/C (endpoint: mean survival time, dose: 0.25 mg/kg/injection, schedule: Q01DX006 (iv), vehicle: saline): 119 % of control
- T/C (endpoint: mean survival time, dose: 0.25 mg/kg/injection, schedule: Q01DX009 (sc), vehicle: saline): 123 % of control
- T/C (endpoint: mean survival time, dose: 0.25 mg/kg/injection, schedule: Q01DX Z (ip), vehicle: carboxymethylcellulose (CMC)): 119 % of control
- T/C (endpoint: mean survival time, dose: 0.25 mg/kg/injection, schedule: Q01DX Z (sc), vehicle: saline): 124 % of control
- T/C (endpoint: mean survival time, dose: 0.48 mg/kg/injection, schedule: Q## X008 (ip), vehicle: saline): 110 % of control
- T/C (endpoint: mean survival time, dose: 0.48 mg/kg/injection, schedule: Q## X016 (ip), vehicle: saline): 103 % of control
- T/C (endpoint: mean survival time, dose: 0.48 mg/kg/injection, schedule: Q## X024 (ip), vehicle: saline): 107 % of control
- T/C (endpoint: mean survival time, dose: 0.5 mg/kg/injection, schedule: Q01DX001 (ip), vehicle: saline): 107 % of control
- T/C (endpoint: mean survival time, dose: 0.5 mg/kg/injection, schedule: Q01DX001 (sc), vehicle: saline): 112 % of control
- T/C (endpoint: mean survival time, dose: 0.5 mg/kg/injection, schedule: Q01DX006 (iv), vehicle: saline): 150 % of control
- T/C (endpoint: mean survival time, dose: 0.5 mg/kg/injection, schedule: Q01DX009 (oral), vehicle: saline): 107 % of control
- T/C (endpoint: mean survival time, dose: 0.5 mg/kg/injection, schedule: Q01DX010 (oral), vehicle: carboxymethylcellulose (CMC)): 164 % of control
- T/C (endpoint: mean survival time, dose: 0.5 mg/kg/injection, schedule: Q01DX Z (im), vehicle: saline): 156 % of control
- T/C (endpoint: mean survival time, dose: 0.5 mg/kg/injection, schedule: Q04DX003 (ip), vehicle: Klucel (hydroxypropylcellulose) (HPC)): 117 % of control
- T/C (endpoint: mean survival time, dose: 0.5 mg/kg/injection, schedule: Q## X002 (ip), vehicle: saline): 109 % of control
- T/C (endpoint: mean survival time, dose: 0.5 mg/kg/injection, schedule: Q## X003 (ip), vehicle: saline): 110 % of control and 115 % of control
- T/C (endpoint: mean survival time, dose: 0.5 mg/kg/injection, schedule: Q## X006 (ip), vehicle: saline): 107 % of control
- T/C (endpoint: mean survival time, dose: 0.5 mg/kg/injection, schedule: Q## X024 (ip), vehicle: saline): 102 % of control
- T/C (endpoint: mean survival time, dose: 0.5 mg/kg/injection, schedule: Q#A X Z (ip), vehicle: saline): 151 % of control
- T/C (endpoint: mean survival time, dose: 0.67 mg/kg/injection, schedule: Q01DX005 (ip), vehicle: saline): 153 % of control and 158 % of control
- T/C (endpoint: mean survival time, dose: 0.7 mg/kg/injection, schedule: Q01DX001 (ip), vehicle: saline): 103 % of control and 105 % of control
- T/C (endpoint: mean survival time, dose: 0.8 mg/kg/injection, schedule: Q01DX009 (ip), vehicle: saline): 115 % of control
- T/C (endpoint: mean survival time, dose: 0.86 mg/kg/injection, schedule: Q01DX001 (ip), vehicle: saline): 159 % of control
- T/C (endpoint: mean survival time, dose: 0.96 mg/kg/injection, schedule: Q## X008 (ip), vehicle: saline): 106 % of control
- T/C (endpoint: mean survival time, dose: 0.96 mg/kg/injection, schedule: Q## X016 (ip), vehicle: saline): 111 % of control
- T/C (endpoint: mean survival time, dose: 1.0 mg/kg/injection, schedule: Q01DX001 (sc), vehicle: saline): 115 % of control
- T/C (endpoint: mean survival time, dose: 1.0 mg/kg/injection, schedule: Q01DX006 (iv), vehicle: saline): 114 % of control
- T/C (endpoint: mean survival time, dose: 1.0 mg/kg/injection, schedule: Q01DX009 (oral), vehicle: saline): 124 % of control
- T/C (endpoint: mean survival time, dose: 1.0 mg/kg/injection, schedule: Q01DX010 (oral), vehicle: carboxymethylcellulose (CMC)): 119 % of control
- T/C (endpoint: mean survival time, dose: 1.0 mg/kg/injection, schedule: Q01DX Z (ip), vehicle: saline): 96 % of control and 110 % of control
- T/C (endpoint: mean survival time, dose: 1.0 mg/kg/injection, schedule: Q04DX003 (ip), vehicle: Klucel (hydroxypropylcellulose) (HPC)): 152 % of control and 173 % of control
- T/C (endpoint: mean survival time, dose: 1.0 mg/kg/injection, schedule: Q## X003 (ip), vehicle: saline): 177 % of control
- T/C (endpoint: mean survival time, dose: 1.0 mg/kg/injection, schedule: Q## X008 (ip), vehicle: saline): 108 % of control
- T/C (endpoint: mean survival time, dose: 1.0 mg/kg/injection, schedule: Q#A X Z (ip), vehicle: saline): 93 % of control
- T/C (endpoint: mean survival time, dose: 1.3 mg/kg/injection, schedule: Q## X003 (ip), vehicle: saline): 164 % of control
- T/C (endpoint: mean survival time, dose: 1.3 mg/kg/injection, schedule: Q## X004 (ip), vehicle: saline): 185 % of control
- T/C (endpoint: mean survival time, dose: 1.5 mg/kg/injection, schedule: Q01DX005 (ip), vehicle: saline): 118 % of control
- T/C (endpoint: mean survival time, dose: 1.5 mg/kg/injection, schedule: Q04DX003 (ip), vehicle: saline): 169 % of control
- T/C (endpoint: mean survival time, dose: 1.75 mg/kg/injection, schedule: Q07DX Z (ip), vehicle: saline): 193 % of control
- T/C (endpoint: mean survival time, dose: 2.0 mg/kg/injection, schedule: Q01DX001 (oral), vehicle: saline): 106 % of control
- T/C (endpoint: mean survival time, dose: 2.0 mg/kg/injection, schedule: Q01DX001 (sc), vehicle: saline): 159 % of control
- T/C (endpoint: mean survival time, dose: 2.0 mg/kg/injection, schedule: Q01DX010 (oral), vehicle: carboxymethylcellulose (CMC)): 97 % of control
- T/C (endpoint: mean survival time, dose: 2.0 mg/kg/injection, schedule: Q## X002 (ip), vehicle: saline): 197 % of control
- T/C (endpoint: mean survival time, dose: 2.0 mg/kg/injection, schedule: Q## X003 (ip), vehicle: saline): 172 % of control and 186 % of control
- T/C (endpoint: mean survival time, dose: 2.0 mg/kg/injection, schedule: Q## X004 (ip), vehicle: saline): 191 % of control
- T/C (endpoint: mean survival time, dose: 2.0 mg/kg/injection, schedule: Q## X006 (ip), vehicle: saline): 193 % of control
- T/C (endpoint: mean survival time, dose: 2.0 mg/kg/injection, schedule: Q## X016 (ip), vehicle: saline): 168 % of control
- T/C (endpoint: mean survival time, dose: 2.0 mg/kg/injection, schedule: Q## X024 (ip), vehicle: saline): 188 % of control
- T/C (endpoint: mean survival time, dose: 2.1 mg/kg/injection, schedule: Q01DX001 (ip), vehicle: saline): 187 % of control
- T/C (endpoint: mean survival time, dose: 3.0 mg/kg/injection, schedule: Q01DX001 (ip), vehicle: saline): 107 % of control
- T/C (endpoint: mean survival time, dose: 3.0 mg/kg/injection, schedule: Q## X003 (ip), vehicle: saline): 150 % of control
- T/C (endpoint: mean survival time, dose: 3.0 mg/kg/injection, schedule: Q## X004 (ip), vehicle: saline): 108 % of control
- T/C (endpoint: mean survival time, dose: 3.13 mg/kg/injection, schedule: Q01DX001 (ip), vehicle: saline): 164 % of control
- T/C (endpoint: mean survival time, dose: 3.2 mg/kg/injection, schedule: Q01DX001 (ip), vehicle: saline): 213 % of control
- T/C (endpoint: mean survival time, dose: 4.0 mg/kg/injection, schedule: Q01DX001 (oral), vehicle: saline): 122 % of control
- T/C (endpoint: mean survival time, dose: 4.0 mg/kg/injection, schedule: Q01DX009 (oral), vehicle: saline): 113 % of control
- T/C (endpoint: mean survival time, dose: 4.0 mg/kg/injection, schedule: Q01DX Z (oral), vehicle: saline): 93 % of control
- T/C (endpoint: mean survival time, dose: 4.0 mg/kg/injection, schedule: Q## X002 (ip), vehicle: saline): 118 % of control
- T/C (endpoint: mean survival time, dose: 4.0 mg/kg/injection, schedule: Q## X006 (ip), vehicle: saline): 95 % of control
- T/C (endpoint: mean survival time, dose: 4.5 mg/kg/injection, schedule: Q01DX001 (ip), vehicle: saline): 94 % of control
- T/C (endpoint: mean survival time, dose: 4.5 mg/kg/injection, schedule: Q## X003 (ip), vehicle: saline): 98 % of control
- T/C (endpoint: mean survival time, dose: 4.5 mg/kg/injection, schedule: Q## X004 (ip), vehicle: saline): 106 % of control
- T/C (endpoint: mean survival time, dose: 8.0 mg/kg/injection, schedule: Q01DX001 (ip), vehicle: saline): 110 % of control
- T/C (endpoint: mean survival time, dose: 16.0 mg/kg/injection, schedule: Q01DX001 (ip), vehicle: saline): 107 % of control
- T/C (endpoint: mean survival time, dose: 49.0 micrograms/kg/injection, schedule: Q01DX Z (ip), vehicle: carboxymethylcellulose (CMC)): 95 % of control
- T/C (endpoint: mean survival time, dose: 98.0 micrograms/kg/injection, schedule: Q01DX Z (ip), vehicle: carboxymethylcellulose (CMC)): 97 % of control
- T/C (endpoint: mean survival time, dose: 195.0 micrograms/kg/injection, schedule: Q01DX Z (ip), vehicle: carboxymethylcellulose (CMC)): 95 % of control
- T/C (endpoint: mean survival time, dose: 390.0 micrograms/kg/injection, schedule: Q01DX Z (ip), vehicle: carboxymethylcellulose (CMC)): 100 % of control
- T/C (endpoint: median survival time, dose: 0.25 mg/kg/injection, schedule: Q01DX001 (ip), vehicle: saline): 104 % of control
- T/C (endpoint: median survival time, dose: 0.5 mg/kg/injection, schedule: Q01DX001 (ip), vehicle: saline): 115 % of control

— PubChem BioAssay AID248 (DTP/NCI, 2004)
